Measurements reported in patent US10596139B2 (CHASE PHARMACEUTICALS CORPORATION, priority 2015, dated 2020).

Key:
Male Swiss mice [1] = test: Antagonism of xanomeline-induced diarrhea in mice by oxybutynin (fecal pellet count); assay type: in vivo; details: oxybutynin i.p. 0.3 to 30 mg/kg, 30 minutes before xanomeline 30 mg/kg
Protocol: Male Swiss mice (4-6 weeks old), N=10 per treatment group were used.
Mice were placed individually in cages without any bedding materials. During the experiment the number of fecal pellets was counted at different time-points as outlined below:
T0: administration of oxybutinin.
T30 min: administration of vehicle or xanomeline.
T 30 min to T 2.5 h: counting of accumulated fecal pellets excreted.
T+2.5 h to T+4.5 h: counting of accumulated fecal pellets excreted.
The total number of fecal pellets for each mouse was counted over time. An analysis of variance (ANOVA) was performed on the results. Fisher's Protected Least Significant Difference was used for pairwise comparisons. The p value≤0.05 were considered significant. Grubbs' test (http//www at graphpad.com/quickcalcs/Grubbs1.cfm) was used to detect outliers for each parameter in each experimental group.

Male Swiss mice [2] = test: T-maze continuous alternation task (T-CAT) with oxybutynin and xanomeline; assay type: in vivo
From the text: Evaluation of Cognition with Oxybutynin and Xanomeline in the T-maze Alternation Task in Mice
The T-maze continuous alternation task (T-CAT) is useful as model for studying compounds with cognitive enhancing properties. The T-maze consists of 2 choice arms and 1 start arm mounted to a square center. Manual doors are provided to close specific arms during the force choice alternation task.
Mice were randomly assigned to one of the different experimental treatment groups. Each animal was identified by its group name, cage number, series (day) of experiment, and number (1 to 10) written with permanent ink on the tail.
The T-maze apparatus is made of gray Plexiglas with a main stem (55 cm long[…]10 cm wide[…]20 cm high) and two arms (30 cm long[…]10 cm wide[…]20 cm high) positioned at 90 degree angle relative to the main stem. A start box (15 cm long[…]10 cm wide) is separated from the main stem by a guillotine door. Horizontal doors are also provided to close specific arms during the force choice alternation task. […]
The percentage of alternation over the 14 free-choice trials was determined for each mouse and was used as an index of working memory performance. […]
Analysis of variance (ANOVA) was performed on the results. […] The drug-induced improvement of memory was calculated by setting the respective response of the saline/vehicle as 100% and that of the test group as 0% reversion. […]

[3] = tested on: patients with Alzheimer disease; details: cited from earlier work
[4] = tested on: healthy volunteers and Alzheimer's patients; details: cited from earlier work
Male Swiss mice [5] = test: Dose-response to xanomeline in a mouse model of diarrhea (fecal pellet count); assay type: in vivo; details: xanomeline i.p. 0.3 to 30 mg/kg
From the text: Study 1—Establishment of the Dose-Response to Xanomeline in a Mouse Model of Diarrhea.
Male Swiss mice (4-6 weeks old), N=10 per treatment group were used, and treated intra-peritoneally (i.p.) with either vehicle (vehicle group) or increasing doses of xanomeline, a representative muscarinic agonist. Mice were randomly assigned to one of two experimental groups (vehicle; or increasing doses of xanomeline). Each animal was identified by its group name, cage number, series (day) of experiment, and number (1 to 10) written with permanent ink on the tail.
Mice were placed individually in cages without any bedding materials. During the experiment the number of fecal pellets were counted at different time-points, starting one hour before the time of the administration of the test compound (T0), as outlined below:
T−1 h to T0: counting of the accumulated fecal pellets excreted.
T0: administration of the test compound.
T0 to T+2 h: counting of the accumulated fecal pellets excreted.
T+2 h to T+4 h: counting of the accumulated fecal pellets excreted.
The total number of fecal pellets for each mouse was counted over time. An analysis of variance (ANOVA) was performed on the results. Fisher's Protected Least Significant Difference was used for pairwise comparisons; p values≤0.05 were considered significant. […]

Compound | antagonism of diarrhea induced by xanomeline (Male Swiss mice [1]) | ability to perform the T-maze test after pretreatment (Male Swiss mice [2]; i.p. oxybutynin pretreatment 30 minutes before xanomeline) | cognitive and behavioral symptoms of Alzheimer disease ([3]; compared to placebo, 6 months) | side effects (bradycardia, gastro-intestinal distress, excessive salivation, sweating) ([3]; patients with Alzheimer disease) | discontinuation rate ([4]; Alzheimer's patient population) | dose tolerated by some individuals ([4]; oral, taken with food) | maximal tolerated dose ([4]; orally administered) | maximal tolerated dose per day ([4]; orally administered) | diarrhea (number of fecal pellets) (Male Swiss mice [5]) | ability to perform the T-maze test at the higher dose (Male Swiss mice [2]; i.p. xanomeline, higher dose (dose that caused diarrhea))
CCN(CC)CC#CCOC(=O)C(O)(c1ccccc1)C1CCCCC1 (stereo not shown) [oxybutynin, 4-diethylaminobut-2-ynyl 2-cyclohexyl-2-hydroxy-2-phenylethanoate] | dose-dependently antagonized the diarrhea induced by xanomeline | restored the animals' ability to perform the T-maze test | – | – | – | – | – | – | – | –
CCCCCCOc1nsnc1C1=CCCN(C)C1 [xanomeline, 3-(4-hexyloxy-1,2,5-thiadiazol-3-yl)-1-methyl-5,6-dihydro-2H-pyridine] | – | – | significantly improve cognitive and behavioral symptoms of Alzheimer disease | dose-dependent unacceptable side effects | higher than 50% | 110 mg three times/day | 75 mg three times/day | 225 mg/day | dose-dependently causes diarrhea | too sick to perform the test
